Experimental data: article PMC8783508, “A novel D-amino acid peptide with therapeutic potential (ISAD1) inhibits aggregation of neurotoxic disease-relevant mutant Tau and prevents Tau toxicity in vitro” (Alzheimer's Research & Therapy, 2022)
Non-standard residues stand in square brackets, D forms with d. Residues, ends and D or L forms follow the SMILES beside them.

Columns and labels:
Tau^FLΔK = biological target: T1, Tau^FLΔK (Homo sapiens, UniProt P10636, DEL597-597); assay: Fibrillization of Tau^FLΔK monitored by ThS assay; assay type: biochemical; settings: Tau:peptide = 1:1; 1:5; 1:10
T1 construct: Tau^FLΔK Full-length Tau mutant ΔK280
Method: For Tau fibrillization inhibition assays, 10 μM Tau mutant protein (Tau^RDΔK, Tau^FLΔK, Tau^FL-A152T, Tau^FL-P301L) was incubated in BES buffer (N,N-bis(2-hydroxyethyl)-2-aminoethanesulfonic acid, pH 7) in the presence of 2.5 μM heparin at 37 °C for 24 h with and without novel D-peptides (ISAD1 and ISAD1rev) at different concentrations (1 nM to 200 μM). Final concentration of 20 μM ThS was used for monitoring fibrillization. The assay was performed with 40-μl sample volume per well in a 384-well microtiter plate (Thermo LabSystems, Dreieich, Germany). The fibrillization of Tau was monitored by ThS and the relative fluorescence intensity of ThS was read out at 440 excitation/521 emission nm in a Tecan micro titer plate reader (Tecan, Männedorf, Switzerland).

[1] = tested on: Tau^FLΔK, Tau^FL-A152T, Tau^FL-P301L; assay: Pelleting assay and western blot, full-length Tau mutants; assay type: biochemical, human; settings: 10 µM Tau mutant, 100 µM peptide, 24 hours, K9JA western blot
Method: After the ThS assay (end time point, 24 h), 70 μl of each sample (pooled together from 2 wells) was centrifuged in a Beckmann coulter (Optima Max Ultra Centrifuge, TLA 100.3 rotor) at 61,000 rpm for 60 min at 4 °C. After centrifugation, the supernatant was separated from the pellet. Then, the pellet was dissolved in BES buffer in an equal volume as the supernatant. For the following western blot, 12-μl samples were mixed with 3-μl SDS-sample buffer (5x), heated for 5 min at 95 °C, and loaded onto a 8–16% SDS tris-glycine-gel (BioRad, Feldkirchen, Germany). The proteins were transferred to a polyvinylidene fluoride (PVDF) membrane. After the transfer, the membrane was blocked in 5% non-fat dry milk. After washing the membrane three times for 10 min with TBST, the primary pan-Tau K9JA antibody (1:5000; Agilent, Waldbronn, Germany) was incubated for 1 h at RT with gentle agitation, followed by again 3-times washing with TBST. […] The quantification of intensities was performed using ImageJ.
S-Figure 4-6: ISAD1 induces the formation of non-fibrillar large aggregates of Tau mutants. […] (C) The intensity of protein amount in supernatant and pellet was quantified by ImageJ for different Tau mutants such as Tau^FLΔK (Sup. Fig. 2C), Tau^FL-^A152T (Sup. Fig. 3C) or Tau^FL^-P^301L (Sup. Fig. 4C).

N2a-Tau^RDΔK cells = assay: LDH release, externally added Tau^RDΔK aggregates; assay type: cell-based; settings: 10 μM Tau, 100 μM peptide final, pre-incubated, 24 h on cells, n = 3
Method: N2a cells expressing Tau^RDΔK were plated on poly D-lysine-coated 96-well plates with a density of 25,000 cells/well. At 70 to 80% confluence, the cells were treated for 24 h with various concentrations of D-peptides (25, 50, 100, and 250 μM) or Tau^RDΔK (10 μM final concentration) in the presence of ISAD1 and ISAD1rev (100 μM final concentration). The ability of D-peptides to neutralize the toxicity of Tau^RDΔK oligomers/fibrils was investigated by measuring the amount of released LDH (Roche Diagnostics, Mannheim, Germany). Therefore, 50 μL of each well was transferred to a fresh 96-well plate and 50 μL of reagent was added followed by a 30-min incubation period at RT. Finally, 50 μL of stop solution (1 N HCl) was added and absorbance was recorded at 492 nm (TECAN spectrofluorometer, Männedorf, Switzerland). Absorbance values were corrected by background values and the percentage of LDH release was calculated.

T1 sequence (P10636 with tags, fused parts or gaps isoform P10636-8 DEL280-280): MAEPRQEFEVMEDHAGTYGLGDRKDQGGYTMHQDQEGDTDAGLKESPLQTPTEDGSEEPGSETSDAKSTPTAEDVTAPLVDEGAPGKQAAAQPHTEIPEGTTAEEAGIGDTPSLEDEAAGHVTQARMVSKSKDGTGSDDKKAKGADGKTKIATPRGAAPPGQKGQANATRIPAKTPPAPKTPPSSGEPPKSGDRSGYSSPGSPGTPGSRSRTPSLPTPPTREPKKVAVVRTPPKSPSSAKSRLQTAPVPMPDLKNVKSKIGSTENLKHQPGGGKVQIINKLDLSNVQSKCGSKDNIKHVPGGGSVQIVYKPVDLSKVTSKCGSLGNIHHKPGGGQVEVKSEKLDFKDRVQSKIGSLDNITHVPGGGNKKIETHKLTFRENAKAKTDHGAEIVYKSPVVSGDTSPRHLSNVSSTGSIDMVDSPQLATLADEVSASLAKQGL

## CC(C)C[C@@H](NC(=O)[C@@H](CO)NC(=O)[C@@H](CC(C)C)NC(=O)[C@H](NC(=O)[C@@H](CC(=O)O)NC(=O)[C@@H](C)NC(=O)[C@@H](C)NC(=O)[C@H](N)CO)[C@H](C)O)C(=O)N[C@H](CCCCN)C(=O)N[C@H](Cc1ccccc1)C(=O)N[C@@H](C(=O)N[C@H](CO)C(=O)O)C(C)C [ISAD1rev] (H-[dS][dA][dA][dD][dT][dL][dS][dL][dK][dF][dV][dS]-OH; N-terminus and C-terminus assumed)
Tau^FLΔK
  Inhibition of Tau^FLΔK fibrillization, in words: weak inhibitory effects
[1]
  Distribution of full-length Tau mutants between pellet and supernatant: more fractions in the supernatant
N2a-Tau^RDΔK cells
  Effect on toxicity of Tau aggregates, LDH release: Low LDH release levels
